Source: patent US20250352539A1, “COMBINATION THERAPY FOR TREATING CANCER” (AstraZeneca AB, priority 2022, published 2025)

Key:
Type in all cases: cell-based
[1] = tested on: DMS53; experiment: 10-day Cell Titre Glo combination screen; conditions: Homo sapiens, DMS-53; DMS53 lung; monotherapy; read-out: mono AC50
Text: (§1) The Highest Single Agent (HSA) model is used to determine a combination's synergy score (and is based simply on the intuition that if a combination's effect exceeds the effect level of each of its constituents, there must be some combination interaction). Mathematically, the HSA model describes simple superposition of the single agent curves:
(§2) where CX,Y are the concentrations of the X and Y compound, and IX and IY are inhibitions of the single agents at CX,Y. It is also useful to calculate a volume score (HSA Volume) between the data and the HSA surface to characterise the overall strength of combination effects. Empirically derived combination matrices are compared to their respective HSA additivity models constructed from experimentally collected single agent dose response curves. Summation of this excess additivity across the dose response matrix is referred to HSA Volume.
(§3) Potency shifting can also be scored using combination index (CI). For a chosen iso-effect level (ICut), CI is calculated as: […]
(§4) where (CX/ECX) for a particular data point is the ratio of the X compound's measured concentration to its effective concentration at the chosen effect level. The CI is a rough estimate of how much drug was needed in combination relative to the single agent doses required to achieve the chosen effect level. CI values in the range of 0.5-0.7 are typical for in vitro measurements of current clinical combinations. The CI error (σCI) is calculated using standard error propagation through the CI calculation based on the isobologram errors.
(§5) This combination screen was a 10-day assay using Cell Titre Glo as the readout for viability.
(§6) The assay was performed in 384 well plates, with 1 cell line and 4 drug-drug combinations per plate dosed in a 6×6 matrix. A day zero reading was measured to determine growth inhibition. GenedataScreener was used to input the raw values for every well, and the software was programmed to normalise the values to the day zero and DMSO control values.
(§7) The CellTiter-Glo® Luminescent Cell Viability Assay is a homogeneous method to determine the number of viable cells in culture based on quantitation of the ATP present, which signals the presence of metabolically active cells. It relies on the properties of a proprietary thermostable luciferase (Ultra-Glo™ Recombinant Luciferase), which generates a stable “glow-type” luminescent signal and improves performance across a wide range of assay conditions.
(§8) The following information was reported: Synergy scores (HSA); combination index values; AC50 (half-maximal activity concentration) monotherapy values.

[2] = tested on: NCI-H322; experiment: 10-day Cell Titre Glo combination screen; conditions: NCI-H322, NCI-H322 lung; monotherapy; read-out: mono AC50
Text: as §1, §2, §3, §4, §5, §6, §7, §8

[3] = tested on: PC-9; experiment: 10-day Cell Titre Glo combination screen; conditions: Homo sapiens; PC-9 lung; monotherapy; read-out: mono AC50
Text: as §1, §2, §3, §4, §5, §6, §7, §8

[4] = tested on: NCI-H1573; experiment: 10-day Cell Titre Glo combination screen; conditions: Homo sapiens, NCI-H1573, 240 h, NCI-H1573 lung; monotherapy; read-out: mono AC50
Text: as §1, §2, §3, §4, §5, §6, §7, §8

[5] = tested on: NCI-H2009; experiment: 10-day Cell Titre Glo combination screen; conditions: Homo sapiens; NCI-H2009 lung; monotherapy; read-out: mono AC50
Text: as §1, §2, §3, §4, §5, §6, §7, §8

[6] = tested on: NCI-H1650; experiment: 10-day Cell Titre Glo combination screen; conditions: Homo sapiens, NCI-H1650, NCI-H1650 lung; monotherapy; read-out: mono AC50
Text: as §1, §2, §3, §4, §5, §6, §7, §8

[7] = tested on: SUM149PT 53BP1 WT (CNTR) cells; experiment: Clonogenic proliferation assay (14 days, SRB); conditions: Homo sapiens; SUM149PT 53BP1 WT (CNTR); monotherapy; read-out: IC50, clonogenic growth
Method: (§9) Parental BRCA1 mutant SUM149PT breast cancer cell line (Elstrodt 2006) were obtained from AstraZeneca Cell Bank at Alderley Park, Macclesfield. Cells were routinely grown in Ham's F12 media containing 5% foetal calf serum, 1% glutamine (2 mM), 500 ng/ml hydrocortisone and 5% insulin. SUM149PT 53BP1 WT (CNTR) and 53BP1 null (KO) cell pools were generated by CRISPR-Cas9 technology. Short guide (sg) RNA targeting TP53BP1 on exon 10 (GAGTAGATCGGAAAGCATC) and a non-targeting CNTR guide (GAGTAGATCGGAAAGCATC) were designed and cloned into a lentiviral vector containing a mClover3 cassette for green fluorescence signal and hygromycin cassette for selection (pKLV2-U6gRNA (Bbsl)-EF1a-mClover3-T2A-HygR-W). Lentiviruses were generated from both KO and CNTR (sg) RNA and Cas9 (pKLVEF1a-Cas9Bsd-W) plasmids and parental cells were transduced first with Cas9 lentiviruses followed by blasticidin selection and then with KO and CNTR lentiviruses followed by hygromycin selection. Loss of 53BP1 was verified by analysing 53BP1 protein expression from whole cell lysates by western blotting (Novus, NB100-304, 1:1000 dilution).
(§10) Cells were seeded onto 6-well plates, three replicates per cell line, and 24 hours later the cells were dosed with AZD6738/AZD5305. For monotherapies the cells were dosed with a 6-point concentration response of AZD6738 (0 to 0.64 μM) or AZD5305 (0 to 1 μM). For combination treatments single dose of AZD5305 (10 nM) was used with a 5-point concentration response of AZD6738 (0 to 0.64 μM) for 53BP1 KO cells. Cells were grown for 14 days for colony formation without media changes. Cells were fixed with 10% TCA (Tricloroacetic acid). 14 days after dosing any formed colonies were stained with 0.057% SRB (sulforhodamine B acid), imaged with GelCount™ (Oxford OPTRONIX) at 600 dpi resolution and the stained colony growth intensity was measured using plate reader with OD @[…]. Dose response curves were generated and IC50 concentrations were calculated using GraphPad PRISM software.

[8] = tested on: SUM149PT 53BP1 KO cell pools; experiment: Clonogenic proliferation assay (14 days, SRB)
Method: as §9, §10

[9] = tested on: MCF7 T52; experiment: 10-day Cell Titre Glo combination screen; conditions: Homo sapiens; MCF7 T52 breast; monotherapy; read-out: mono AC50
Text: as §1, §2, §3, §4, §5, §6, §7, §8

[10] = tested on: NCI-H23; experiment: 10-day Cell Titre Glo combination screen; conditions: Homo sapiens; NCI-H23 lung; monotherapy; read-out: mono AC50
Text: as §1, §2, §3, §4, §5, §6, §7, §8

[11] = tested on: HCC1569; experiment: 10-day Cell Titre Glo combination screen; conditions: Homo sapiens; HCC1569 breast; monotherapy; read-out: mono AC50
Text: as §1, §2, §3, §4, §5, §6, §7, §8

[12] = tested on: DU4475; experiment: 10-day Cell Titre Glo combination screen; conditions: Homo sapiens, DU-4475; DU4475 breast; monotherapy; read-out: mono AC50
Text: as §1, §2, §3, §4, §5, §6, §7, §8

[13] = tested on: HCC1395; experiment: 10-day Cell Titre Glo combination screen; conditions: Homo sapiens; HCC1395 breast; monotherapy; read-out: mono AC50
Text: as §1, §2, §3, §4, §5, §6, §7, §8

[14] = tested on: NCI-H1792; experiment: 10-day Cell Titre Glo combination screen; conditions: Homo sapiens; NCI-H1792 lung; monotherapy; read-out: mono AC50
Text: as §1, §2, §3, §4, §5, §6, §7, §8

[15] = tested on: NCI-H1666; experiment: 10-day Cell Titre Glo combination screen; conditions: Homo sapiens; NCI-H1666 lung; monotherapy; read-out: mono AC50
Text: as §1, §2, §3, §4, §5, §6, §7, §8

[16] = tested on: HCC15; experiment: 10-day Cell Titre Glo combination screen; conditions: HCC15 lung; monotherapy; read-out: mono AC50
Text: as §1, §2, §3, §4, §5, §6, §7, §8

Row | Structure (SMILES) | AC50 [1] | AC50 [2] | AC50 [3] | AC50 [4] | AC50 [5] | AC50 [6] | IC50 [7] | growth inhibition as monotherapy ([8]; 10 nM, cell pool not given) | sensitivity, clonogenic growth ([8]; SUM149PT 53BP1 KO, monotherapy) | AC50 [9] | AC50 [10] | AC50 [11] | AC50 [12] | AC50 [13] | AC50 [14] | AC50 [15] | AC50 [16]
1 | CCc1cc2ccc(CN3CCN(c4ncc(C)n4C)CC3)cc2[nH]c1=O [AZ14114554, 7-((4-(1,5-dimethyl-1H-imidazol-2-yl)piperazin-1-yl)methyl)-3-ethylquinolin-2 (1H)-one] | 62.2 nM | 1.23 nM | 97100 nM | 19.6 nM | 105 nM | 63.2 nM |  |  |  |  |  |  |  |  |  |  | 
2 | CCc1cc2ncc(CN3CCN(c4ccc(C(=O)NC)nc4)CC3)cc2[nH]c1=O [AZD5305, 5-{4-[(7-ethyl-6-oxo-5,6-dihydro-1,5-naphthyridin-3-yl)methyl]piperazin-1-yl}-N-methylpyridine-2-carboxamide] |  |  |  | 47.7 nM |  |  | ~6 nM | does not show growth inhibition | completely resistant | 41.8 nM | 4.13 nM | 22100 nM | 120 nM | 5.73 nM | 24.5 nM | 9.36 nM | 7.7 nM
